Values after ≈ are worked out from the molar mass of the structure shown. Values joined by “and” are separate entries in the source; they are usually repeats but may differ in a detail not shown here. Equal entries are not always repeated. Where two headings read alike, the source gives them in different places.
Legend:
[1] = In vivo pharmacokinetics in mice after single oral dose, plasma levels by HPLC-MS/MS; conditions: 30 mg/kg p.o.; for AUC(0-t): non-compartmental analysis
Experimental: Male mice (breed: C57BL/6J) were supplied by Charles River Labs, Milan, Italy. Mice were submitted to 12 h light-dark cycles under standard temperature and humidity conditions, with free access to water and chow. All experimental procedures were carried out following the European Community Council Directive 2010/63/UE, Italian regulations (DL 26/2014), and the ethical committee guidelines for animal research. […] Blood aliquots were withdrawn by tail puncture into heparinized tubes, centrifuged to collect plasma (2000× g, 10 min, 4 °C), and stored at −80 °C until analysis by HPLC-ESI-MS/MS. Details on the employed bioanalytical method and HPLC-ESI-MS/MS analytical conditions are given in Section S.4 of the Supplementary Material.
Microsoft Excel 365 (Microsoft Corp., Redmond, WA, USA) was employed for data analysis. GraphPad Prism v. 6.01 (GraphPad Software Inc., La Jolla, CA, USA) was employed for plotting graphs. The freeware software PCModFit V.6.7 (Add-on for Microsoft Excel) was employed for AUC calculations by non-compartmental analysis (NCA). […]
Calibration standards (CS, concentration range: 1000-2 nmol/L) were prepared by spiking blank […]
= 1%). Specificity of the method was checked comparing HPLC-MS/MS chromatograms of blank […]
(§1) Within-run accuracy and precision were checked employing QC samples representative of the whole calibration range (HQC = 800 nmol/l; MQC = 400 nmol/l; LQC = 5 nmol/l) with n = 3 replicates at each QC concentration level. Between-run accuracy and precision were checked employing QC samples at n=3 concentration levels in n = 3 analytical runs over three days. The acceptance criteria for accuracy were to get back-calculated concentrations ± 15% of the nominal ones, except for the LLOQ, which had to be ± 20%. The acceptance criteria for precision, expressed as relative standard

[2] = Phase II sulfonation stability in human liver S9 fraction (+PAPS); type: in vitro ADME; conditions: pH 7.4, human liver S9, 1 μM, read-out: in vitro t1/2, sulfonation
Experimental: (§2) Phase II sulfonation assays were carried out in the presence of HLS9 or MLS9 fractions, as previously reported. The co-factor PAPS was incubated together with MgCl2, DTT, and UniPR compounds. The detailed experimental protocols for in vitro phase I and II metabolic stability assays are reported in Sections S.1–S.3 of the Supplementary Material. […] A 100 µL aliquot of the reaction mixture was extracted at the beginning of the experiment (t = 0) and at t = 180 min and processed as for the metabolic stability samples.
In vitro half-life (t1/2) in MLM and MLS9 fraction was calculated from the slope (k, Equation (1)) of the linear regression model obtained by fitting the log percentage UniPR compound remaining vs. time. in vitro t1/2 = −0.693/k (1) […]
S.1 In vitro phase I liver metabolism in MLM […]
as §1, with “Between-run accuracy and precision were checked employing QC samples at n=3 concentration levels in n = 3 analytical runs over three days.” left out

[3] = cited from earlier work
[4] = Phase I metabolic stability in mouse liver microsomes (MLM) with NADPH-generating system; type: in vitro ADME; conditions: for in vitro half-life (t1/2), phase I metabolism / half-life at 1 µM: NADPH-generating system; for half-life at 1 µM: pH 7.4, MLM, read-out: in vitro half-life (t1/2), phase I metabolism
[5] = cited from earlier work; remark: listed apart in the source
[6] = mice, cited from earlier work
[7] = Phase II glucuronidation stability in MLM (+UDPGA); type: in vitro ADME, mouse; conditions: 1 μM
Experimental: Phase I metabolic stability assays on UniPR compounds were carried out in the presence of MLM (final protein concentration: 1 mg/mL) following published procedures. MLM were also employed in phase II glucuronidation assays employing UDPGA as activating co-factor.
(§3) S.1 In vitro phase I liver metabolism in MLM
(§4) In phase I metabolic stability assays, samples were prepared in 100 mM phosphate buffered saline (PBS), pH 7.4, containing a NADPH-generating system (5 mM MgCl2, 10 mM glucose-6-phosphate, 2 mM NADP+, 1.5 U/mL of glucose-6-phosphate dehydrogenase) and 1 mg/mL mouse liver […]
solutions in DMSO were added to start the reaction. Final DMSO percentage in samples was kept at 1%. At fixed time points (t = 0, 15, 30, 45, 60 min), single aliquots of reaction mixture were withdrawn, processed with two vol. of ACN containing 100 nM UniPR126, centrifuged (16000 g, 10 min, 4 °C) and the supernatant was directly injected in the HPLC-ESI-MS/MS system. […]
as §1, with “Between-run accuracy and precision were checked employing QC samples at n=3 concentration levels in n = 3 analytical runs over three days.” left out

[8] = Phase II sulfonation stability in mouse liver S9 fraction (+PAPS); type: in vitro ADME; conditions: mouse liver S9, 1 μM
Experimental: as §2, §3, §4
solutions in DMSO were added to start the reaction. Final DMSO percentage in samples was kept at 1%. […]
as §1, with “Between-run accuracy and precision were checked employing QC samples at n=3 concentration levels in n = 3 analytical runs over three days.” left out

[9] = 24 h incubation at 37 °C; cited from earlier work
[10] = n-octanol/buffer pH 7.4, cited from earlier work
[11] = target: EphA2-Fc (Mus musculus, UniProt Q03145); assay: Surface plasmon resonance (SPR) binding to sensorchip-immobilized EphA2-Fc
Experimental: SPR measurements were performed on a BIAcore X100 instrument (GE-Healthcare, Milwaukee, WI, USA), using research-grade CM4 carboxyl-methyl-dextran-coated sensorchips (GE-Healthcare). SPR was exploited to measure changes in refractive index caused by the binding of UniPR500 to surface-immobilized EphA2. […] Binding parameters were calculated by the non-linear curve fitting software package BIA evaluation 3.2 using a single site model with correction for mass transfer. The dissociation constant (Kd) was either derived from the dissociation rate (koff)/association rate (kon) ratio (kinetics) or by steady-state analysis (being fitted with the proper form of Scatchard’s equation for the plot of the bound RU at equilibrium vs. the ligand concentration in solution).

[12] = Lipophilicity, distribution coefficient n-octanol/buffer pH 7.4; type: physicochemical
[13] = set-up: method as in PMID 31891876, PMID 32927068; conditions: reference substrates; cited from earlier work
[14] = male, C57BL/6J, mouse, plasma, po

Sequence of EphA2-Fc (Q03145 26-538): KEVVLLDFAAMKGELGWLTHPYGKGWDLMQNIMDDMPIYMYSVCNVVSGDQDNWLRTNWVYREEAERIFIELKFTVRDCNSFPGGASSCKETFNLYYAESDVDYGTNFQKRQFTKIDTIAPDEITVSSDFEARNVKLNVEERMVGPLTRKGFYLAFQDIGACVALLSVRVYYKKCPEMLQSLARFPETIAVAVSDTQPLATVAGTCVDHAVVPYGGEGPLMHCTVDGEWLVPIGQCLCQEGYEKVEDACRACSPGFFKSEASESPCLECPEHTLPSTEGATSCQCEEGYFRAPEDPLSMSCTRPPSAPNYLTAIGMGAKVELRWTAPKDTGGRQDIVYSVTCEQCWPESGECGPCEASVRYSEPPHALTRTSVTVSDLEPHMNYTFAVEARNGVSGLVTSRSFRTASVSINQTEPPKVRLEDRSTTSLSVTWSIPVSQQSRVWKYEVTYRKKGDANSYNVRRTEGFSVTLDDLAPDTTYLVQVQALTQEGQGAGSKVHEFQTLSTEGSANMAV

In the case of `C[C@H](CCC(=O)N[C@H](CC(=O)O)Cc1c[nH]c2ccccc12)[C@H]1CC[C@H]2[C@@H]3CC[C@@H]4C[C@H](O)CC[C@]4(C)[C@H]3CC[C@]12C` [UniPR129, N-(3α-hydroxy-5β-cholan-24-oyl)-L-β-homotryptophan], the AUC(0-t) [1, 14] is listed as 0.0406 µM·h, the half-life at 1 µM [2] is listed as 61.1 ± 4.3 min and the kinetic solubility ([3]; PBS buffer pH 7.4) is listed as 18.3 ± 2.4 µg/mL (≈ 31.7 µM). The kinetic solubility ([3]; previously measured) was 18 µg/mL (≈ 31.2 µM), the “change in concentration in the absence of the NADPH-generating system” value ([4]; MLM control without NADPH-generating system) was “No decrease” and the “in vitro half-life (t1/2), phase I metabolism” value ([4]; MLM, 1 μM) was 17 min. For the same molecule, the “classification of in vitro phase I intrinsic clearance” value ([4]; classification bands of ref 19) was “high clearance compound”, the half-life at 1 µM ([4]; mouse, liver microsomes, 1 μM) was 16.8 min and the microsomal CLint at 1 µM ([4]; mouse, liver microsomes, pH 7.4, MLM, 1 μM, estimate from t1/2, read-out: phase I intrinsic clearance (CL'int)) was 41.4 µL/min/mg. The “plasma protein binding (%bound)” value [5] was 98%, the “plasma levels after oral administration” value ([6]; 30 mg/kg oral dose) was “low nanomolar range” and the Tmax ([6]; 30 mg/kg p.o.) was 1 h. For the same molecule, the Cmax ([6]; 30 mg/kg p.o., read-out: Cmax in plasma) was 13.6 ± 1.2 nM, the “percentage of intact compound at t = 60 min, glucuronidation” value [7] was 85.7 ± 2.7% and the “percentage remaining at t = 60 min, sulfonation” value [8] was 86.2 ± 5.3%. The “percentage recovered in mouse plasma” value [9] was 98.3 ± 9.5%, the “Log Doct,7.4” value [10] was 4.90 ± 0.15 and the “Log Doct,7.4” value ([10]; evaluated in a previous paper) was 4.90.

With `C[C@H](CCC(=O)N[C@H](CC(=O)O)Cc1c[nH]c2ccccc12)[C@H]1CC[C@H]2[C@@H]3CCC4CC(=NO)CC[C@]4(C)[C@H]3CC[C@]12C` (stereo partly drawn) [UniPR500, N-(3-hydroxyimino-cholan-24-oyl)-L-β-homotryptophan] the “fold increase of AUC (0–6 h) with respect to UniPR129” value [1] was 43 fold, the Tmax [1, 14] was 30 min and the Cmax ([1]; male, C57BL/6J, mouse, plasma, po, mean ± S.E.M., n = 4, read-out: maximal plasma concentration (Cmax)) was 609 ± 102 nM. For the same molecule, the concentration at 1 h ([1]; male, C57BL/6J, mouse, plasma, po, mean ± S.E.M., read-out: plasma concentration at 1 h post-dose) was 344 ± 29 nM, the concentration at 6 h ([1]; male, C57BL/6J, mouse, plasma, po, mean ± S.E.M., read-out: plasma concentration at 6 h post-dose) was 237 ± 24 nM and the AUC(0-t) [1, 14] was 1.75 µM·h. For the same molecule, the half-life at 1 µM [2] was 58.6 ± 6.1 min, the kinetic solubility ([3]; previously measured) was 30.6 ± 2.6 µg/mL and 30 µg/mL and the “in vitro half-life (t1/2), phase I metabolism” value ([4]; MLM, 1 μM) was 60 min. The half-life at 1 µM ([4]; mouse, liver microsomes, 1 μM) was 60.4 min, the “percentage of intact compound at t = 60 min, glucuronidation” value [7] was 79.5 ± 2.9% and the “percentage remaining at t = 60 min, sulfonation” value [8] was 81.0 ± 4.0%. For the same molecule, the “concentration at which saturation binding is reached” value [11] was “around 25 μM”, the “decrease of Log Doct,7.4 with respect to UniPR129” value [12] was “approximately 0.7 log unit” and the “Log Doct,7.4” value ([10]; evaluated in a previous paper) was 4.23 ± 0.11 and 4.23.

In the case of `O=C(O)Cc1ccccc1Nc1c(Cl)cccc1Cl` [diclofenac], the “t1/2 of known phase I CYP substrates” value [13] is given as roughly 6 min.

Source: publication PMC8779995, “Metabolic Soft Spot and Pharmacokinetics: Functionalization of C-3 Position of an Eph–Ephrin Antagonist Featuring a Bile Acid Core as an Effective Strategy to Obtain Oral Bioavailability in Mice” (Pharmaceuticals, 2021)
